According to patent US12202835B2, “Substituted aromatic ring-linked dioxinoquinazolines and dioxinoquinolines as kinase inhibitors” (BEIJING SCITECH-MQ PHARMACEUTICALS LIMITED, priority 2018, dated 2025):

What was measured:
Ba/F3 LMNA-NTRK1 cells = assay: Assay for inhibiting the proliferation of Ba/F3 LMNA-NTRK1 cells (CCK-8); format: cell-based; details: Mus musculus, BaF3
Procedure: In particular, the method of the assay of small molecular compounds for inhibiting cell proliferation is as follows: • 1. Cells cultured to a logarithmic growth phase (adherent cells need to be digested with trypsin and neutralized) were taken, pipetted evenly, transferred to a 15 mL centrifuge tube, and centrifuged at 1000 rpm at room temperature for 4 minutes; • 2. The supernatant was discarded; 5 mL of complete medium was added and pipetted evenly; 10 μL of cell suspension was taken out, mixed well with 10 μL of 0.4% trypan blue, and counted under a cell counter; the proportion of living cells was ensured to be above 90%; • 3. 80 μL of cell suspension per well was seeded into a 96-well plate according to the conditions shown in the attached table, and cultured overnight; in the outer 36 wells of the 96-well plate, no cells were added but only sterile water was added; only the inner 60 wells were used for cell assay and control; • 4. […] 20 μL of the corresponding compounds with different concentration gradients were added to each well of assay wells of the 96-well plate; 20 μL of complete medium was added to positive and negative control wells and shaken well; and the final concentration of DMSO in each well was 0.25%; • 6. After 72 hours of incubation, 10 μL of CCK-8 reagent was added to each well and further incubated at 37° C. for 1-2 hours; and the OD value was read at 450 nm; • 7. Cell survival rate (%)=[(As−Ab)/(Ac−Ab)]*100% • As: Assay well (medium containing cells, CCK-8, compound), • Ac: Control well (medium containing cells, CCK-8), • Ab: Blank well (CCK-8, medium without cell and compound), • 8. The values were imported into Graphpad Prism 5 software for IC50 calculation.

c-MET kinase = c-MET kinase (Homo sapiens (Human), UniProt P08581); assay: Assay of small molecular compounds for inhibiting the activity of c-MET kinase (LANCE TR-FRET); format: biochemical; details: read-out: CMET IC50
Procedure: (§1) The assay is based on the LANCE TR-FRET technology of Perkin Elmer Inc., and the assay method is as follows: • 1. Dilution of compounds: a total of 11 concentrations were obtained using a 3-fold gradient dilution from the highest concentration of 2500 nM (the maximum final concentration of the drug used in this assay was 2500 nM, and the minimum final concentration was 0.042 nM). • 2. 2.5 μL of the gradient-diluted compounds were taken with a transfer pipette to a 384-well plate. • 3. Addition of enzyme: 5 μL of 2×c-MET kinase solution (with a concentration of 2 nM) was taken with a transfer pipette to the corresponding reaction well of the 384-well plate, mixed well and pre-reacted at room temperature for 5 minutes. • 4. 2.5 μL 4× Ultra ULight™-JAK-1 (Tyr1023) Peptide (with a concentration of 400 nM)/ATP (with a concentration of 40 μM) mixture was taken with a transfer pipette to the corresponding reaction well of the 384-well plate. • 5. Negative control: 2.5 μL/well 4× substrate/ATP mixture and 7.5 μL 1× Kinase Assay Buffer were added to the wells of the 384-well plate. • 6. Positive control: 2.5 μL/well 4× substrate/ATP mixture, 2.5 μL/well 1× Kinase Assay Buffer containing 16% DMSO, and 5 μL/well 2× c-MET kinase solution were added to the 384-well plate. The final concentration of DMSO in the reaction system was 4%. • 7. The mixture was mixed well and then centrifuged and reacted at room temperature in dark for 60 min. • 8. Termination of the enzymatic reaction: 5 μL of 4× stop solution was taken with a transfer pipette to the wells of the 384-well plate, mixed and then centrifuged, and reacted at room temperature for 5 min. • 9. Development of the reaction: 5 μL of 4× detection solution was taken with a transfer pipette to the wells of the 384-well plate for color development, and the mixture was mixed and then centrifuged and reacted at room temperature for 60 min. • 10. The 384-well plate was placed into the Envision plate reader and the signal was detected using the appropriate program. • 11. Analysis and processing of the raw data: • 12. The drug concentrations and the corresponding inhibition rates were input into GraphPad Prism5 for calculation, and the inhibition rate of the compounds were calculated as follows: inhibition rate (%)=(reading of positive well−reading of experimental well)/(reading of positive control well−reading of negative control well)×100%. Processing with GraphPad Prism5 software yielded the corresponding IC50 values (the concentration of the compound at which 50% of the highest inhibition of the enzyme is achieved).

MER kinase = MER kinase (Homo sapiens (Human), UniProt Q12866); assay: Assay of small molecular compounds for inhibiting the activity of MER kinase (LANCE TR-FRET); format: biochemical
Procedure: The assay of small molecular compounds for inhibiting the activity of MER kinase is based on the LANCE TR-FRET technology of Perkin Elmer Inc., and the assay method is as follows: • 1. Dilution of compounds: a total of 11 concentrations were obtained using a 3-fold gradient dilution from the highest concentration of 2500 nM (the maximum final concentration of the drug used in this assay was 2500 nM, and the minimum final concentration was 0.042 nM). • 2. 2.5 μL of the gradient-diluted compounds were taken with a transfer pipette to a 384-well plate. • 3. Addition of enzyme: 5 μL of 2×MER kinase solution (with a concentration of 1 nM) was taken with a transfer pipette to the corresponding reaction well of the 384-well plate, mixed well and pre-reacted at room temperature for 5 minutes. • 4. 2.5 μL 4× ULight-labeled Ploy GT (with a concentration of 200 nM)/ATP (with a concentration of 20 μM) mixture was taken with a transfer pipette to the corresponding reaction well of the 384-well plate. • 5. Negative control: 2.5 μL/well 4× substrate/ATP mixture and 7.5 μL 1× Kinase Assay Buffer were added to the wells of the 384-well plate.
Positive control: 2.5 μL/well 4× substrate/ATP mixture, 2.5 μL/well 1× Kinase Assay Buffer containing 4% DMSO, and 5 μL/well 2×MER kinase solution were added to the 384-well plate. The final concentration of DMSO in the reaction system was 1%. • 6. The mixture was mixed well and then centrifuged and reacted at room temperature in dark for 60 min. • 7. Termination of the enzymatic reaction: 5 μL of 4× stop solution was taken with a transfer pipette to the wells of the 384-well plate, mixed and then centrifuged, and reacted at room temperature for 5 min. • 8. Development of the reaction: 5 μL of 4× detection solution was taken with a transfer pipette to the wells of the 384-well plate for color development, and the mixture was mixed and then centrifuged and reacted at room temperature for 60 min. • 9. The 384-well plate was placed into the Envision plate reader and the signal was detected using the appropriate program. • 10. Analysis and processing of the raw data:
The drug concentrations and the corresponding inhibition rates were input into GraphPad Prism5 for calculation, and the inhibition rate of the compounds were calculated as follows: inhibition rate (%)=(reading of positive well−reading of experimental well)/(reading of positive control well−reading of negative control well)×100%. Processing with GraphPad Prism5 software yielded the corresponding IC50 values (the concentration of the compound at which 50% of the highest inhibition of the enzyme is achieved).

TRKA kinase = TRKA kinase (Homo sapiens (Human), UniProt P04629); assay: Assay of small molecular compounds for inhibiting the activity of TRKA kinase (LANCE TR-FRET); format: biochemical
Summary of the method: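 LANCE TR-FRET with ULight-TK peptide; compounds pre-incubated 5 min with TRKA (2× solution 2 nM), then substrate/ATP added (4× mix: 400 nM peptide, 40 μM ATP). Reaction 60 min at room temperature in dark, 1% DMSO final; stopped, detection developed 60 min, signal read.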

VEGFR-2 kinase = VEGFR-2 kinase (Homo sapiens (Human), UniProt P35968); assay: Assay of small molecular compounds for inhibiting the activity of VEGFR-2 kinase (LANCE TR-FRET); format: biochemical; details: read-out: VEGFR2 IC50
Procedure: as §1, with “μL of 2×VEGFR2 kinase solution” for “μL of 2×c-MET kinase solution”, “concentration of 0.5 nM) was” for “concentration of 2 nM) was”, “temperature for 30 minutes. •” for “temperature for 5 minutes. •”, “concentration of 200 nM)/ATP (with” for “concentration of 400 nM)/ATP (with”, “5 μL/well 2×VEGFR-2 kinase solution” for “5 μL/well 2× c-MET kinase solution”, “raw data: The drug” for “raw data: • 12. The drug”

Sequence of VEGFR-2 kinase (P35968 20-1356): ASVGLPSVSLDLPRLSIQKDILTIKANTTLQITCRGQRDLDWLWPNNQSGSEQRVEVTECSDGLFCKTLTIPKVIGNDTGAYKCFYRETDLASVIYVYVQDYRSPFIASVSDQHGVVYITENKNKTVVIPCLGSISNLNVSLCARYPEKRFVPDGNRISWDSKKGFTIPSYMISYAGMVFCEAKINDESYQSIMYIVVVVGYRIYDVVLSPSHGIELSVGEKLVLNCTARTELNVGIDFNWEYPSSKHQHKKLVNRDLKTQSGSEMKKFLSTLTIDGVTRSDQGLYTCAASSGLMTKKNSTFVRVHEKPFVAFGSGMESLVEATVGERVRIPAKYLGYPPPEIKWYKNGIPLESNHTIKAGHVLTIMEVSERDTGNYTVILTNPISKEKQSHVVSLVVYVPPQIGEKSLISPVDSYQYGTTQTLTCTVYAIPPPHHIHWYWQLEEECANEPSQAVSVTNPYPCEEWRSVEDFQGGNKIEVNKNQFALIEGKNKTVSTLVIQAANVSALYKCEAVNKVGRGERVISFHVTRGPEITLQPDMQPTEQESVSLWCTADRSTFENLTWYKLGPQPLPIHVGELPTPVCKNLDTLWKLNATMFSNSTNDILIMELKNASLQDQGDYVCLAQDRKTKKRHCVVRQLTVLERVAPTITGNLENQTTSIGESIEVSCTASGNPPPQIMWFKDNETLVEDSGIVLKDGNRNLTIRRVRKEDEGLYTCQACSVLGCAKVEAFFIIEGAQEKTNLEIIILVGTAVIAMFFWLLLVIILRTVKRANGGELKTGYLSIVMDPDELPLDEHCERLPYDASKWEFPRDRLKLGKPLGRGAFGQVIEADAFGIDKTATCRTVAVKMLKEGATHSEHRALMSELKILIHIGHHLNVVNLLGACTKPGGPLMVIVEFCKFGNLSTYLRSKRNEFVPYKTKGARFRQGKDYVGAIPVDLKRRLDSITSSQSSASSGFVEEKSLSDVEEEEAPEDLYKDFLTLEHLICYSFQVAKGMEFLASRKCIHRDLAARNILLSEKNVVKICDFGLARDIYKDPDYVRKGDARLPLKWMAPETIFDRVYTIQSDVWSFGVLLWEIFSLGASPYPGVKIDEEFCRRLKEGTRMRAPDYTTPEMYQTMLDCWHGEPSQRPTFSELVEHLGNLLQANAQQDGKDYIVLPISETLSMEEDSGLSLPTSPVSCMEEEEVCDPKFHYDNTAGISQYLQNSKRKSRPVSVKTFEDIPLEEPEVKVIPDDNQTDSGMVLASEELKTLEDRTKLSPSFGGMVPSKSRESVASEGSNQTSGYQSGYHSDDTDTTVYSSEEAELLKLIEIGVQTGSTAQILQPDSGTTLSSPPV
Sequence of MER kinase (Q12866 21-999): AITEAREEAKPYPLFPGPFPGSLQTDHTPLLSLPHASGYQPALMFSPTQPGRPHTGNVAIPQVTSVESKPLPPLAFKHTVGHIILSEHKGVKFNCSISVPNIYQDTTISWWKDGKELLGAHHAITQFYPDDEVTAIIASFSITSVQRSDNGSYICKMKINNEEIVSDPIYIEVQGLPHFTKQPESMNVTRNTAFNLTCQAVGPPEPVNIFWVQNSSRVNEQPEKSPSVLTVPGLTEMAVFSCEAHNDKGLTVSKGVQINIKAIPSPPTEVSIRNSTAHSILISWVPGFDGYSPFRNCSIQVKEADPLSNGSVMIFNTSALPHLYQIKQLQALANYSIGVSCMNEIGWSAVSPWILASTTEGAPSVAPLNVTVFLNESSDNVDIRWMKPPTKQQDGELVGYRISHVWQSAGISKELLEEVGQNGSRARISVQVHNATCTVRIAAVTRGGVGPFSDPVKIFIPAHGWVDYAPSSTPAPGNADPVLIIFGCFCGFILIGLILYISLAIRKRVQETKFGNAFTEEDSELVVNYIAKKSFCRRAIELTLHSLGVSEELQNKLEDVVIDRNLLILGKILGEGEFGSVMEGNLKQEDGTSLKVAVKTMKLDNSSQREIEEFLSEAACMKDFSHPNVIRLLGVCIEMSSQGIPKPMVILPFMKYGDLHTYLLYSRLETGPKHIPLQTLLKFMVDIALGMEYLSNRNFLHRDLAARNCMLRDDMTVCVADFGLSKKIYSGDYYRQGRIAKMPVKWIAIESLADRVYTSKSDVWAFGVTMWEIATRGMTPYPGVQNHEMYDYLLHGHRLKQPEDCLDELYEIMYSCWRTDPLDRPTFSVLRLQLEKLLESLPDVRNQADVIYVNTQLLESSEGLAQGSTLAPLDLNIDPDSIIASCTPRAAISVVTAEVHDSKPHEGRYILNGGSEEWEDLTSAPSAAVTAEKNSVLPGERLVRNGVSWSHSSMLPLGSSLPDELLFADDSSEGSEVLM
Sequence of TRKA kinase (P04629 33-796): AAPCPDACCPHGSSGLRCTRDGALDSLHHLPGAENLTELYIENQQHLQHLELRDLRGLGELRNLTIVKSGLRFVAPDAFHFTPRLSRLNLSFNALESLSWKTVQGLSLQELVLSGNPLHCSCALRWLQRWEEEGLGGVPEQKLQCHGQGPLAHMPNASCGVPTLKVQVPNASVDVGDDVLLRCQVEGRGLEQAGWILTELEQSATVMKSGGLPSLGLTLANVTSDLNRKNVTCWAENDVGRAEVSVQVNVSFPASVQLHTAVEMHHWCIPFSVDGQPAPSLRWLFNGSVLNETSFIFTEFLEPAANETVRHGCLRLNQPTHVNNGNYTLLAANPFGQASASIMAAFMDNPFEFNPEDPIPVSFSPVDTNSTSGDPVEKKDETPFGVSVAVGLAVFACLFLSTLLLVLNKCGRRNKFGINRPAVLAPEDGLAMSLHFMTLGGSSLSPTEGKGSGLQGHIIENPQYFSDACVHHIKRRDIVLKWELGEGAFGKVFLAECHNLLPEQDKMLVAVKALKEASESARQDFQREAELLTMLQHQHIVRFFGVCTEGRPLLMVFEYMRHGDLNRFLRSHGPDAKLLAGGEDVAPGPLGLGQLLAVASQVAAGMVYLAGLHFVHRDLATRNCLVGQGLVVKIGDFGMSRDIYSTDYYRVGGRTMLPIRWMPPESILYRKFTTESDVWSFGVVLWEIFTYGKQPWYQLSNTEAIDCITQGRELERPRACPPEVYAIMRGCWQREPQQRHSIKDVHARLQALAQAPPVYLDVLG
Sequence of c-MET kinase (P08581 25-1390): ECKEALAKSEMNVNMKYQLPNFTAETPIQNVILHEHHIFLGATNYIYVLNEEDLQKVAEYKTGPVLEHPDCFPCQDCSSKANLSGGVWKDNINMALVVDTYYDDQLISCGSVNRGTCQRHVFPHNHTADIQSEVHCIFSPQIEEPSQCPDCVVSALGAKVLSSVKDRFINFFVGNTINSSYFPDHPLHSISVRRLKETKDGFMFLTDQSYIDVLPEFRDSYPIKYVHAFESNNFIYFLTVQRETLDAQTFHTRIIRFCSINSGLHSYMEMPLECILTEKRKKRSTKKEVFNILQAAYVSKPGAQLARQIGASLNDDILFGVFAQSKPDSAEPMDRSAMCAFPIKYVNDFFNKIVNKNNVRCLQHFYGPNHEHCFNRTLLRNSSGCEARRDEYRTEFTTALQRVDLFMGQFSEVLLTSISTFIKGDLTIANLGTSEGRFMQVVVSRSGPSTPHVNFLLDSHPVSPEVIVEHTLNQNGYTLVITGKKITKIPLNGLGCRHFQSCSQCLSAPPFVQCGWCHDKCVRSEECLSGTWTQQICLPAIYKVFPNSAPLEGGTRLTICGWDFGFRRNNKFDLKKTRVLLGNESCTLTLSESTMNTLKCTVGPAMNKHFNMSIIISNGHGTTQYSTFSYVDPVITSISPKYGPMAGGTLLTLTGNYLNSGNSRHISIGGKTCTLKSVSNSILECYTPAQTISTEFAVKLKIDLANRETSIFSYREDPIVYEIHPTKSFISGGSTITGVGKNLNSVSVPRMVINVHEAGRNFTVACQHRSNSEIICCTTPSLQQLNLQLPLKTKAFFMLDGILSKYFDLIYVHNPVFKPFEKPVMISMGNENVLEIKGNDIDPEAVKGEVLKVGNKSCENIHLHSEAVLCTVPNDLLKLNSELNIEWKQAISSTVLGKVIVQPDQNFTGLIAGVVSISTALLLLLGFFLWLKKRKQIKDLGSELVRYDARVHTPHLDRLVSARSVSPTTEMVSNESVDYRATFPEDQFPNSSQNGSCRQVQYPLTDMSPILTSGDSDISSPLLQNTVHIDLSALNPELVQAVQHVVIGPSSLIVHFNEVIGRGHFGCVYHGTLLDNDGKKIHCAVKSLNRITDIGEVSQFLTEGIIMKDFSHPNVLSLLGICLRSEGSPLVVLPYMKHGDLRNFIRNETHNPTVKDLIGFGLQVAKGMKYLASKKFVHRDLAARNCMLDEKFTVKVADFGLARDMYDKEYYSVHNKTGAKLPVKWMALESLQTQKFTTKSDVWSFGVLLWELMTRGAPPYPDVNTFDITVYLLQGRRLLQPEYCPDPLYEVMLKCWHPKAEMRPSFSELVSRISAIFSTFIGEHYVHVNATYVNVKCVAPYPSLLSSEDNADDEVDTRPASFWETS

| SMILES | IC50 (Ba/F3 LMNA-NTRK1 cells) [µM] | IC50 (c-MET kinase) [µM] | IC50 (MER kinase) [µM] | IC50 (TRKA kinase) [µM] | IC50 (VEGFR-2 kinase) [µM] |
| --- | --- | --- | --- | --- | --- |
| COc1cn(-c2ccc(F)cc2C)nc1C(=O)Nc1ccc(Oc2ccnc3cc(OC)c4c(c23)OCCO4)c(F)c1 [Example 24, 1-(4-fluoro-2-methylphenyl)-N-(3-fluoro-4-((5-methoxy-2,3-dihydro-[1,4]dioxino[2,3-f]quinolin-10-yl)oxy)phenyl)-4-methoxy-1H-pyrazole-3-carboxamide] | < 0.05 | 0.05 to 0.5 | 0.05 to 0.5 | < 0.05 | – |
| COc1cc2nccc(Oc3ccc(NC(=O)c4cn(CC(=O)OC(C)(C)C)c(=O)n(-c5ccc(F)cc5)c4=O)cc3F)c2c2c1OCCO2 [Example 103, tert-butyl 2-(5-((3-fluoro-4-((5-methoxy-2,3-dihydro-[1,4]dioxino[2,3-f]quinolin-10-yl)oxy)phenyl)carbamoyl)-3-(4-fluorophenyl)-2,4-dioxo-3,4-dihydropyrimidin-1(2H)-yl)acetate] | – | – | 0.05 to 0.5 | – | 0.5 to 5 |
| CCOc1ccn(C2CCCCC2)c(=O)c1C(=O)Nc1ccc(Oc2ccnc3cc(OC)c4c(c23)OCCO4)c(F)c1 [Example 119, 1-cyclohexyl-4-ethoxy-N-(3-fluoro-4-((5-methoxy-2,3-dihydro-[1,4]dioxino[2,3-f]quinolin-1 0-yl)oxy)phenyl)-2-oxo-1,2-dihydropyridine-3-carboxamide] | – | – | 0.5 to 5 | > 5 | > 5 |
| N#CCCCOc1cc2nccc(Oc3ccc(NC(=O)c4cccn(-c5ccc(F)cc5)c4=O)c(Cl)c3)c2c2c1OCCO2 [Example 131, N-(2-chloro-4-((5-(3-cyanopropoxy)-2,3-dihydro-[1,4]dioxino[2,3-f]quinolin-10-yl)oxy)phenyl)-1-(4-fluorophenyl)-2-oxo-1,2-dihydropyridine-3-carboxamide] | < 0.05 | ≤ 0.05 | 0.05 to 0.5 | < 0.05 | – |
| COc1ccn(-c2ccc(F)cc2)c(=O)c1C(=O)Nc1ccc(Oc2ccnc3cc(OCCCN4CCOCC4)c4c(c23)OCCO4)cc1Cl [Example 144, N-(2-chloro-4-((5-(3-morpholinopropoxy)-2,3-dihydro-[1,4]dioxino[2,3-f]quinolin-10-yl)oxy)phenyl)-1-(4-fluorophenyl)-4-methoxy-2-oxo-1,2-dihydropyridine-3-carboxamide] | < 0.05 | ≤ 0.05 | – | < 0.05 | 0.05 to 0.5 |
| Cn1cc(C(=O)Nc2ccc(Oc3ccnc4cc(OC5CC5)c5c(c34)OCCO5)cc2)c(=O)n(-c2ccc(F)cc2)c1=O [Example 151, N-(4-((5-cyclopropyloxy-2,3-dihydro-[1,4]dioxino[2,3-f]quinolin-10-yl)oxy)phenyl)-3-(4-fluorophenyl)-1-methyl-2,4-dioxo-1,2,3,4-tetrahydropyrimidine-5-carboxamide] | – | ≤ 0.05 | – | 0.5 to 5 | 0.5 to 5 |
| CCn1cc(C(=O)Nc2ccc(Oc3ccnc4cc(OC5CC5)c5c(c34)OCCO5)cc2)c(=O)n(-c2ccc(F)cc2)c1=O [Example 152, N-(4-((5-cyclopropyloxy-2,3-dihydro-[1,4]dioxino[2,3-f]quinolin-10-yl)oxy)phenyl)-3-(4-fluorophenyl)-1-ethyl-2,4-dioxo-1,2,3,4-tetrahydropyrimidine-5-carboxamide] | – | ≤ 0.05 | – | > 5 | > 5 |
